We go through 8 compounds from US20120088827A1 (Profectus Biosciences, Inc., priority 2009, published 2012).

Experiment [1] has as its system NF-κB driven transcription (pNF-κB-luc reporter, 293 cells). Description: 293/NF-kB-luc reporter cell assay. It counts as cell-based. Particulars: Homo sapiens; compound 2 hours, then 20 ng/ml TNF-α for 18 hours; luminescence. The method, then: Two reporter cell assays were used to determine the ability of the compounds of Examples 1-12 to inhibit NF-κB driven transcription. The first assay was a 293-cell based assay with a stably integrated pNF-κB-luc reporter plasmid containing 3 NF-κB promoter elements. The second assay was a 293-cell based assay with a stably integrated pTRH1-NF-κB-dscGFP reporter containing 4 NF-κB promoter elements. Cells were treated with 0, 0.2, 1, 10, 20 and 40 μM of the compounds of Example 1-12 for 2 hours then were induced with 20 ng/ml TNF-α for 18 hours. Following the induction, luminescence or fluorescence was quantified using a Beckman-Coulter 2300 plate reader. […] As a control, 0.5% DMSO treated and untreated cells were compared to verify that the compounds of Examples 1-12 had no effect on the expression of luciferase or in the readout of the assay. There was a slight decrease in the output from the assay in the DMSO treated population although it was not statistically significant. As a result of the controls, the decrease in activity in the drug treated samples was compared to the DMSO control sample.

Experiment [2] concerns the target T1, c-Rel (Homo sapiens, UniProt Q04864).
T1 sequence (Q04864 1-619): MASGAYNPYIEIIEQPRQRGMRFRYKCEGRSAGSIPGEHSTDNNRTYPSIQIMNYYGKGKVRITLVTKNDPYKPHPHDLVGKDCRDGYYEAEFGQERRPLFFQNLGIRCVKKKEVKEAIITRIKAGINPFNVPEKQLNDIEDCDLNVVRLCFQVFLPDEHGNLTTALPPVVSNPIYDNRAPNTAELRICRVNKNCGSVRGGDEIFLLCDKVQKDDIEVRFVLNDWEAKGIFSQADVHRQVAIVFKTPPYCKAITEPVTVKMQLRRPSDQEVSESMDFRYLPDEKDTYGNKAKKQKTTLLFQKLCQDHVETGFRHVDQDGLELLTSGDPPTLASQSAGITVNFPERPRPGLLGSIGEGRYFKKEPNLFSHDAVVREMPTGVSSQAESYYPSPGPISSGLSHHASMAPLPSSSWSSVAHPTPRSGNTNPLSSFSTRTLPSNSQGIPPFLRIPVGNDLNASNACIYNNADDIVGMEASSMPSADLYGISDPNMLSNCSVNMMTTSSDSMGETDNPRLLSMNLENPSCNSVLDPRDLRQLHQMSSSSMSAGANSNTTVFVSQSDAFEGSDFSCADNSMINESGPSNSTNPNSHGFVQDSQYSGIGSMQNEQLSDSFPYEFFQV
The experiment in a line: TransAM NF-κB Family DNA Binding ELISA, c-Rel. The method, then: The binding activity of NF-κB heterodimer or homodimer subunits from activated nuclear extracts or purified recombinant NF-κB proteins exposed to the drug compounds was evaluated using the TransAM NF-κB Family binding ELISA (Active Motif). Approximately 3-5 μg of nuclear extracts from TNFα activated Hela or Raji cells (Active Motif) or 20 ng of purified recombinant proteins (p65 and p50 from Active Motif, p52 from Santa Cruz) were incubated for 1 hour at room temperature with 20 μL drug compounds diluted in Complete Lysis buffer without DTT. Treated samples were then transferred to 30 μL Complete Binding Buffer (with DTT) in microplate wells pre-coated with the NF-κB consensus oligonucleotide. […] The plate was incubated for 1 hour at room temperature with gentle shaking and then washed 3 times with 200 μL 1× Wash Buffer. NF-κB p65, p50, p52, RelB, or c-Rel subunits bound to the plate were detected with 100 μL of the primary antibody (diluted 1:1000 in 1× Antibody Buffer) specific for that subunit. The plate was incubated for 1 hour at room temperature and then washed 3 times with 200 μL 1× Wash Buffer. Next, 100 μL of a HRP conjugated goat anti-rabbit antibody (diluted 1:1,000 in 1× Antibody Buffer) was added to each well. The plate was incubated for 1 hour at room temperature and then washed 4 times with 200 μL 1× Wash Buffer. 100 μL of room temperature Developing Solution was added to each well. The reaction was allowed to develop for 2-10 minutes until a medium dark blue color developed (depending on the subunit activity in the lot of extract or lot of recombinant protein used) and then the reaction was stopped with 100 μL Stop Solution yielding a yellow color. Absorbance was recorded using a Becton-Dickinson DTX 880 Multimode Detector at 450 nm with a reference wavelength subtracted at 620 nm.
Background: An ELISA detects its analyte on a solid surface through an enzyme-linked reagent.

The EC50 is the midpoint of the concentration-response curve. Lower therefore signals an effect from little substance. The inhibition is the share of the control response that was lost under treatment. Low values mean a weak effect, high ones a strong effect. In experiment [1], `CC(C)CC(=O)Oc1ccccc1C(=O)NC1=CC(=O)C2OC2C1O` (racemic) [Example 1, (±)-2-(2-hydroxy-5-oxo-7-oxabicyclo[4.1.0]hept-3-en-3-ylcarbamoyl)phenyl 3-methylbutanoate] registered an EC50 of 18 µM. The compound further gave an inhibition at 5 µM in experiment [2] of 1%.

As to `CC(C)OC(=O)Oc1ccccc1C(=O)NC1=CC(=O)C2OC2C1OC(=O)OC(C)C` (racemic) [Example 2, (±)-3-(2-isopropoxycarbonyloxy-benzoylamino)-5-oxo-7-oxa-bicyclo[4.1.0]hept-3-en-2-yl ester isopropyl ester], the EC50 in experiment [1] worked out at 11 µM. In experiment [2], this compound displayed an inhibition at 5 µM of 0%.

Compound `O=C(CC1CCCCC1)Oc1ccccc1C(=O)NC1=CC(=O)C2OC2C1O` (racemic) [Example 3, (±)-2-(2-hydroxy-5-oxo-7-oxabicyclo[4.1.0]hept-3-en-3-ylcarbamoyl)phenyl 2-cyclohexylacetate] gave an EC50 in experiment [1] of 14 µM. In experiment [2], this compound gave an inhibition at 5 µM of 3%.

Regarding `CCCC(C)C(=O)Oc1ccccc1C(=O)NC1=CC(=O)C2OC2C1O` (racemic) [Example 4, (±)-2-(2-hydroxy-5-oxo-7-oxabicyclo[4.1.0]hept-3-en-3-ylcarbamoyl)phenyl 2-methylpentanoate], the EC50 in experiment [1] came to 10 µM. In experiment [2], the inhibition at 5 µM was determined as 9%.

On to `CCCCC(CC)C(=O)Oc1ccccc1C(=O)NC1=CC(=O)C2OC2C1O` (racemic) [Example 5, (±)-2-(2-hydroxy-5-oxo-7-oxabicyclo[4.1.0]hept-3-en-3-ylcarbamoyl)phenyl 2-ethylhexanoate], for which, in experiment [1], the response was half-maximal at 15 µM (EC50). In experiment [2], testing at 5 µM gave an inhibition of 9%.

In turn, `CC(C)(C)CC(=O)Oc1ccccc1C(=O)NC1=CC(=O)C2OC2C1O` (racemic) [Example 6, (±)-2-(2-hydroxy-5-oxo-7-oxabicyclo[4.1.0]hept-3-en-3-ylcarbamoyl)phenyl 3,3-dimethylbutanoate] displayed an EC50 in experiment [1] of 8 µM. In experiment [2], this compound came in with an inhibition at 5 µM of 6%.

Take `CC(C)OC(=O)Oc1ccccc1C(=O)NC1=CC(=O)C2OC2C1O` (racemic) [Example 7, (±)-2-(2-hydroxy-5-oxo-7-oxabicyclo[4.1.0]hept-3-en-3-ylcarbamoyl)phenyl isopropyl carbonate]: the EC50 in experiment [1] was 17 µM. Besides, at 5 µM the inhibition in experiment [2] was 5%.

Regarding `CC(C)OC(=O)OC1C(NC(=O)c2ccccc2O)=CC(=O)C2OC21` (racemic) [Example 8], in experiment [1], the EC50 was 10 µM. The inhibition at 5 µM in experiment [2] came out at 2%.
